From ChEMBL document CHEMBL3044751, “Structure-based design, synthesis, and molecular modeling studies of 1-(benzo[d]thiazol-2-yl)-3-(substituted aryl)urea derivatives as novel anti-Parkinsonian agents” (2012)

Legend:
Assay type in all cases: functional
Details in all cases: route intraperitoneal
Mus musculus [1] = assay: Antiparkinsonian activity against haloperidol-induced catalepsy in Mus musculus Swiss albino (mouse) assessed reduction in catalepsy at 100 mg/kg, ip administered 30 min prior to haloperidol injection measured after 30 to 180 min; design: scale not given: the % may be the effect or the level left
Mus musculus [2] = assay: Antiparkinsonian activity against haloperidol-induced catalepsy in Mus musculus Swiss albino (mouse) assessed as decrease in mean descent time at 100 mg/kg, ip administered 30 min prior to haloperidol injection measured after 180 min
Mus musculus [3] = assay: Antiparkinsonian activity against haloperidol-induced catalepsy in Mus musculus Swiss albino (mouse) assessed as decrease in mean descent time at 100 mg/kg, ip administered 30 min prior to haloperidol injection measured after 150 min
Mus musculus [4] = assay: Antiparkinsonian activity against haloperidol-induced catalepsy in Mus musculus Swiss albino (mouse) assessed as decrease in mean descent time at 100 mg/kg, ip administered 30 min prior to haloperidol injection measured after 120 min
Mus musculus [5] = assay: Antiparkinsonian activity against haloperidol-induced catalepsy in Mus musculus Swiss albino (mouse) assessed as decrease in mean descent time at 100 mg/kg, ip administered 30 min prior to haloperidol injection measured after 90 min
Mus musculus [6] = assay: Antiparkinsonian activity against haloperidol-induced catalepsy in Mus musculus Swiss albino (mouse) assessed as decrease in mean descent time at 100 mg/kg, ip administered 30 min prior to haloperidol injection measured after 60 min
Mus musculus [7] = assay: Antiparkinsonian activity against haloperidol-induced catalepsy in Mus musculus Swiss albino (mouse) assessed as decrease in mean descent time at 100 mg/kg, ip administered 30 min prior to haloperidol injection measured after 30 min
Mus musculus [8] = assay: Antiparkinsonian activity against haloperidol-induced oxidative stress in Mus musculus Swiss albino (mouse) assessed reduction in glutathione peroxidase activity in brain by measuring malondialdehyde level at 100 mg/kg, ip administered 30 min prior to haloperidol injection
Mus musculus [9] = assay: Antiparkinsonian activity against haloperidol-induced oxidative stress in Mus musculus Swiss albino (mouse) assessed reduction in superoxide dismutase activity in brain by measuring malondialdehyde level at 100 mg/kg, ip administered 30 min prior to haloperidol injection by NBT reduction assay
Mus musculus [10] = assay: Antiparkinsonian activity against haloperidol-induced oxidative stress in Mus musculus Swiss albino (mouse) assessed reduction in glutathione level in brain by measuring malondialdehyde level at 100 mg/kg, ip administered 30 min prior to haloperidol injection
Mus musculus [11] = assay: Antiparkinsonian activity against haloperidol-induced oxidative stress in Mus musculus Swiss albino (mouse) assessed reduction in lipid peroxidation in brain by measuring malondialdehyde level at 100 mg/kg, ip administered 30 min prior to haloperidol injection by TBARS assay

| Structure (SMILES) | Activity (Mus musculus [1]) | Time (Mus musculus [2]) | Time (Mus musculus [3]) | Time (Mus musculus [4]) | Time (Mus musculus [5]) | Time (Mus musculus [6]) | Time (Mus musculus [7]) | Activity (Mus musculus [8]) | Activity (Mus musculus [9]) | Activity (Mus musculus [10]) | Activity (Mus musculus [11]) |
| --- | --- | --- | --- | --- | --- | --- | --- | --- | --- | --- | --- |
| O=C(Nc1nc2ccccc2s1)Nc1ccccc1[N+](=O)[O-] | 71.4% | 130 s | 99 s | 85 s | 77 s | 56 s | 23 s | – | – | – | – |
| O=C(Nc1ccc(Oc2ccccc2)cc1)Nc1nc2ccccc2s1 | 50.5% | 196 s | 189 s | 161 s | 126 s | 67 s | 51 s | – | – | – | – |
| O=C(CCCN1CCC(O)(c2ccc(Cl)cc2)CC1)c1ccc(F)cc1 [HALOPERIDOL] | – | 300 s | 300 s | 300 s | 264 s | 242 s | 155 s | 0.68 U/g | 0.85 U/mg | 5.57 µg/g | 4.92 nmol/mg |
| O=C(Nc1cccc(Cl)c1)Nc1nc2ccccc2s1 | 35.6% | 230 s | 191 s | 182 s | 169 s | 144 s | 101 s | – | – | – | – |
| N[C@@H](Cc1ccc(O)c(O)c1)C(=O)O [LEVODOPA] | 65.6% | 137 s | 122 s | 119 s | 99 s | 49 s | 32 s | – | – | – | – |
| O=C(Nc1nc2ccccc2s1)Nc1ccccc1Cl | 37.1% | 289 s | 212 s | 205 s | 134 s | 98 s | 57 s | – | – | – | – |
| COc1ccc(NC(=O)Nc2nc3ccccc3s2)cc1 | 53.1% | 181 s | 180 s | 160 s | 117 s | 69 s | 43 s | – | – | – | – |
| COc1cc(NC(=O)Nc2nc3ccccc3s2)cc(OC)c1OC | 70.1% | 122 s | 115 s | 89 s | 81 s | 46 s | 37 s | – | – | – | – |
| O=C(Nc1ccc(Cl)cc1)Nc1nc2ccccc2s1 | 37.4% | 220 s | 207 s | 190 s | 166 s | 129 s | 78 s | – | – | – | – |
| COc1ccc(NC(=O)Nc2nc3ccccc3s2)c(OC)c1 | 69.8% | 149 s | 107 s | 94 s | 78 s | 41 s | 26 s | – | – | – | – |
| Nc1nc2c(cnn2CCc2ccccc2)c2nc(-c3ccco3)nn12 [SCH-58261] | 86.4% | 72 s | 58 s | 45 s | 36 s | 19 s | 11 s | – | – | – | – |
| O=C(Nc1nc2ccccc2s1)Nc1ccccc1F | 30.8% | 241 s | 223 s | 207 s | 193 s | 145 s | 81 s | – | – | – | – |
| O=C(Nc1ccc([N+](=O)[O-])cc1)Nc1nc2ccccc2s1 | 30.5% | 253 s | 234 s | 199 s | 181 s | 138 s | 90 s | – | – | – | – |
| O=C(Nc1nc2ccccc2s1)Nc1cc(C(F)(F)F)ccc1Cl | 56.3% | 173 s | 129 s | 118 s | 114 s | 89 s | 77 s | – | – | – | – |
| Cc1ccccc1NC(=O)Nc1nc2ccccc2s1 | 46.9% | 198 s | 180 s | 166 s | 134 s | 101 s | 66 s | – | – | – | – |
| O=C(Nc1ccc(F)cc1)Nc1nc2ccccc2s1 | 29.8% | 263 s | 234 s | 219 s | 188 s | 131 s | 70 s | – | – | – | – |
| Cc1ccc(NC(=O)Nc2nc3ccccc3s2)cc1 | 47.2% | 185 s | 171 s | 160 s | 155 s | 97 s | 72 s | – | – | – | – |
| COc1ccccc1NC(=O)Nc1nc2ccccc2s1 | 75.9% | 103 s | 95 s | 72 s | 65 s | 34 s | 32 s | 1.65 U/g | 2.12 U/mg | 12.34 µg/g | 2.99 nmol/mg |
| O=C(NCc1ccco1)Nc1nc2ccccc2s1 | 77.3% | 95 s | 85 s | 81 s | 72 s | 29 s | 18 s | 1.36 U/g | 1.87 U/mg | 16.53 µg/g | 3.12 nmol/mg |
| O=C(Nc1nc2ccccc2s1)Nc1ccccc1Br | 36.7% | 224 s | 201 s | 173 s | 156 s | 128 s | 118 s | – | – | – | – |
| O=C(Nc1ccc(Br)cc1)Nc1nc2ccccc2s1 | 35.4% | 216 s | 211 s | 196 s | 178 s | 132 s | 87 s | – | – | – | – |
